Key:
HT-29 cancer cell line = assay: Cytotoxicity assay, HT-29; assay type: cell-based, human; conditions: highest concentration tested 33 µM
[1] = tested on: MDA-MB-435 cancer cell line; assay: Cytotoxicity assay, MDA-MB-435; assay type: cell-based, human; conditions: highest concentration tested 33 µM
elastase = assay: Protease inhibition assay, elastase; assay type: biochemical; conditions: highest concentration tested 13 µM
trypsin = assay: Protease inhibition assay, trypsin; assay type: biochemical; conditions: highest concentration tested 13 µM
chymotrypsin = assay: Protease inhibition assay, chymotrypsin; assay type: biochemical; conditions: highest concentration tested 13 µM
Mycobacterium smegmatis = assay: Growth inhibition assay, M. smegmatis; assay type: cell-based; conditions: highest concentration tested 50 µg/mL
Staphylococcus aureus = assay: Growth inhibition assay, S. aureus; assay type: cell-based; conditions: highest concentration tested 50 µg/mL
Escherichia coli = assay: Growth inhibition assay, E. coli; assay type: cell-based; conditions: highest concentration tested 50 µg/mL
Candida albicans = assay: Growth inhibition assay, C. albicans; assay type: cell-based; conditions: highest concentration tested 50 µg/mL
[2] = tested on: Mycobacterium tuberculosis; conditions: highest concentration tested 50 µg/mL

cyclo[L-Val2-L-Ser-L-Ile-L-Asn-L-Val1-L-Phe-L-Pro-] [Microseiramide (1)]
no activity was observed: cytotoxicity (HT-29 cancer cell line) | cytotoxicity [1] | protease inhibition (elastase) | protease inhibition (trypsin) | protease inhibition (chymotrypsin) | growth inhibition (Mycobacterium smegmatis) | growth inhibition (Staphylococcus aureus) | growth inhibition (Escherichia coli) | growth inhibition (Candida albicans) | growth inhibition [2]

Source: article PMC4467913 (Phytochemistry letters, 2015)
